Results taken from US11690396B2, “Electronic cigarette compositions, devices, and related methods” (ZANOPRIMA LIFESCIENCES LIMITED, priority 2018, dated 2023).
Values after ≈ are worked out from the molar mass of the structure shown.

Assays:
[1] = Solubility of carbon dioxide in nicotine solutions (Example 3, weight change); assay type: physicochemical
Description: Into weighed plastic 500 ml bottles containing approximately 50 g of a solution of nicotine in glycerol/propylene glycol according to Table 3 were added 4-5 g solid carbon dioxide (dry-ice), sufficient to raise the pressure to 4-5 bar. The mixtures were held under pressure for 3 days before the pressure was released, and the mixtures were then stood at ambient temperature for 48 hours and then the new weight of the solution measured. The change in weight before and after addition of the CO2 enable the amount of CO2 incorporated into the solution to be derived, as well as the molar ratio of CO2 to nicotine.

[2] = Solubility of carbon dioxide in nicotine solutions with low propylene glycol (Example 5); assay type: physicochemical; settings: for Added CO2: ~50.0 g solution, average of two experiments
From the text: Using the same methodology as that of Example 3, solutions of nicotine in glycerol, nicotine, water, and propylene glycol (if present) were made as detailed in the Table 4. In Table 4, propylene glycol is referred to as “PG”. The propylene glycol, when present, originated from the addition of a tobacco flavouring composition. The tobacco flavouring composition, referred to in Table 4 as “TF”, (made up of tobacco flavouring dissolved/dispersed in propylene glycol) included propylene glycol at 65% by weight. […] For each experiment, the solution used was within 0.2 g of 50.0 g. As with Example 3, the solutions were weighed before and after the addition of the CO2, and the change in weight before and after addition of the CO2 enabled the amount of CO2 incorporated into the solution to be derived. The amount of carbon dioxide reported as being incorporated into solution is the average result achieved across two experiments.

[3] = glycerol 78.3, nicotine 5, water 8.7, TF 8, PG 5.2 wt %
[4] = glycerol 81, nicotine 2, water 9, TF 8, PG 5.2 wt %
[5] = glycerol 82.65, nicotine 5, water 4.35, TF 8, PG 5.2 wt %
[6] = glycerol 85.5, nicotine 2, water 4.5, TF 8, PG 5.2 wt %
[7] = glycerol 85.5, nicotine 5, water 9.5, TF 0, PG 0 wt %
[8] = glycerol 88.2, nicotine 2, water 9.8, TF 0, PG 0 wt %
[9] = glycerol 90.25, nicotine 5, water 4.75, TF 0, PG 0 wt %
[10] = glycerol 93.1, nicotine 2, water 4.9, TF 0, PG 0 wt %

Question: Which “Solubility CO2” value ([1]; 70:30 glycerol:propylene glycol, nicotine 0 g/kg, 4-5 bar 3 days, then 48 h ambient) does the source give for `O=C=O` [CO2, carbon dioxide] here?
Answer: 3.8 g/kg

Question: What about the “Added CO2” value ([1]; 70:30 glycerol:propylene glycol, nicotine 0 g/kg, 50.00 g solution, 4-5 bar 3 days, then 48 h ambient) of the same molecule?
Answer: 0.19 g

Question: And the “Solubility CO2” value ([1]; 70:30 glycerol:propylene glycol, nicotine 0 g/kg, estimated density 1.19 kg/L)?
Answer: 4.5 mg/mL (≈ 102 mM)

Question: What about the “Molar ratio CO2/nicotine” value ([1]; 70:30 glycerol:propylene glycol, nicotine 4 g/kg (0.4%)) of the same molecule?
Answer: 8.77 mol/mol

Question: And the “Added CO2” value ([1]; 70:30 glycerol:propylene glycol, nicotine 4 g/kg (0.4%), 49.96 g solution, average of two results)?
Answer: 0.48 g

Question: And the “Solubility CO2” value ([1]; 70:30 glycerol:propylene glycol, nicotine 4 g/kg (0.4%), average of two results)?
Answer: 9.5 g/kg

Question: What about the “Solubility CO2” value ([1]; 70:30 glycerol:propylene glycol, nicotine 4 g/kg (0.4%), estimated density 1.19 kg/L) of the same molecule?
Answer: 11.3 mg/mL (≈ 257 mM)

Question: And the “weight increase (CO2 incorporated)” value ([1]; comparative: 20 g pure nicotine charged similarly with carbon dioxide)?
Answer: did not result in any weight increase at all

Question: And the “Solubility of CO2” value [2, 3]?
Answer: 13 g/kg

Question: And the “Solubility of CO2” value ([2]; glycerol 78.3, nicotine 5, water 8.7, TF 8, PG 5.2 wt %, estd density 1.21 kg/l)?
Answer: 16 mg/mL

Question: What about the “Added CO2” value [2, 3] of the same molecule?
Answer: 0.66 g

Question: And the “Solubility of CO2” value [2, 4]?
Answer: 12 g/kg

Question: What about the “Solubility of CO2” value ([2]; glycerol 81, nicotine 2, water 9, TF 8, PG 5.2 wt %, estd density 1.21 kg/l) of the same molecule?
Answer: 14 mg/mL

Question: What about the “Added CO2” value [2, 4] of the same molecule?
Answer: 0.58 g

Question: And the “Solubility of CO2” value [2, 5]?
Answer: 16 g/kg

Question: What about the “Solubility of CO2” value ([2]; glycerol 82.65, nicotine 5, water 4.35, TF 8, PG 5.2 wt %, estd density 1.22 kg/l) of the same molecule?
Answer: 19 mg/mL

Question: And the “Added CO2” value [2, 5]?
Answer: 0.79 g

Question: And the “Solubility of CO2” value [2, 6]?
Answer: 11 g/kg

Question: What about the “Solubility of CO2” value ([2]; glycerol 85.5, nicotine 2, water 4.5, TF 8, PG 5.2 wt %, estd density 1.23 kg/l) of the same molecule?
Answer: 13 mg/mL

Question: What about the “Added CO2” value [2, 6] of the same molecule?
Answer: 0.54 g

Question: What about the “Solubility of CO2” value [2, 7] of the same molecule?
Answer: 16 g/kg

Question: And the “Solubility of CO2” value ([2]; glycerol 85.5, nicotine 5, water 9.5, TF 0, PG 0 wt %, estd density 1.22 kg/l)?
Answer: 20 mg/mL

Question: What about the “Added CO2” value [2, 7] of the same molecule?
Answer: 0.82 g

Question: And the “Solubility of CO2” value [2, 8]?
Answer: 11 g/kg

Question: What about the “Solubility of CO2” value ([2]; glycerol 88.2, nicotine 2, water 9.8, TF 0, PG 0 wt %, estd density 1.23 kg/l) of the same molecule?
Answer: 14 mg/mL

Question: And the “Added CO2” value [2, 8]?
Answer: 0.56 g

Question: What about the “Solubility of CO2” value [2, 9] of the same molecule?
Answer: 18 g/kg

Question: And the “Solubility of CO2” value ([2]; glycerol 90.25, nicotine 5, water 4.75, TF 0, PG 0 wt %, estd density 1.24 kg/l)?
Answer: 23 mg/mL

Question: And the “Added CO2” value [2, 9]?
Answer: 0.91 g

Question: And the “Solubility of CO2” value [2, 10]?
Answer: 10 g/kg

Question: And the “Solubility of CO2” value ([2]; glycerol 93.1, nicotine 2, water 4.9, TF 0, PG 0 wt %, estd density 1.25 kg/l)?
Answer: 13 mg/mL

Question: And the “Added CO2” value [2, 10]?
Answer: 0.51 g
